This note sets out measurements from patent US3935255A, “Phenylacetic acid derivatives” (Laboratoires Jacques Logeais, priority 1973, dated 1976).

Data set [1] deals with fever induced by injection of barm. The data set can be described thus: Antipyretic action against fever induced by injection of barm, in rats. Format: in vivo. The following applies: p.o. The source says: (§1) Said properties were evidenced in animals by means of conventional pharmacological tests.
Antipyretic action, against fever induced by injection of barm, in rats.

Data set [2] can be described thus: Koster test (analgesic action). It counts as in vivo. The following applies: po.
Text: as §1
Analgesic action: Koster test (cf. KOSTER and ANDERSON. Feder. Proceed., 1959, 18, 412)

A short description of data set [3]: LD50 (acute toxicity). The note with it: in vivo.
For data set [4], the system named is carrageenin-induced edema. The data set can be described thus: Carrageenin-induced edema in rats (anti-inflammatory action). It counts as in vivo. The note with it: Rattus norvegicus, po.
Text: as §1
(§2) Anti-inflammatory action:
carrageenin-induced edema in rats (cf. WINTER, RISLEY and MUSS, Proc. Soc. Exp. Biol. Med., 1962, 111, 544),
(The carrageenan paw model is a standard test of acute inflammation.)

The subject of data set [5] is adjuvant-induced polyarthritis. The data set can be described thus: Adjuvant-induced polyarthritis in rats (anti-inflammatory action). It counts as in vivo. The note with it: Rattus norvegicus, 336 h, p.o., oral dosage which decreases by at least 50% the manifestations of arthritis within 14 days.
Text: as §1, §2
adjuvant-induced polyarthritis in rats, determination of the oral dosage (mg/kg/day) which decreases by at least 50% the manifestations of arthritis within 14 days.

Data set [6] concerns ultraviolet-induced erythema. The data set can be described thus: Ultraviolet-induced erythema in guinea-pigs (anti-inflammatory action). The following applies: Cavia porcellus, po, read-out: UV-induced erythema ED50. Format: in vivo.
Text: as §1, §2
ultraviolet-induced erythema in guinea-pigs (cf. WINTER, Arch. Int. Pharmaco., 1958, 116, 261),

Like-named read-outs stand apart in the source and are kept apart here.

In general, ED50 refers to the dose that gives a 50% effect, or the effect in half of the subjects. The LD50 is the dose at which mortality reaches 50%.

In the case of `CC(C(=O)O)c1ccc(C2=CC(=NO)CCC2)cc1` (stereo not drawn) [Example 1, 2-[4-(3'-Hydroxyimino-cyclohexen-1'-yl)-phenyl]propionic acid], in data set [1], the Antipyretic action is 30 mg·kg. Moreover, the ED50 in data set [2] is 30 to 50 mg/kg. Moreover, the LD50 was > 100 mg/kg in data set [3] (ip, I.P., read-out: LD50 I.P.) and > 100 mg/kg in data set [3] (po, P.O., read-out: LD50 P.O.). The same compound yielded an ED40 in data set [4] of 2.2 mg/kg.

In data set [1], `CC(C(=O)O)c1ccc(C2CCCC(=NO)C2)cc1` (stereo not drawn) [Example 2, 2-[4-(3'-Hydroxyimino-cyclohexyl)phenyl]propionic acid] gave an Antipyretic action of 3 mg·kg. The ED50 in data set [2] was determined as 4.5 mg/kg; in data set [5], 0.9 mg/kg; in data set [6], 2 mg/kg. Besides, the LD50 was > 200 mg/kg in data set [3] (ip, I.P., read-out: LD50 I.P.) and > 200 mg/kg in data set [3] (po, P.O., read-out: LD50 P.O.). Also, the ED40 in data set [4] amounted to 0.25 mg/kg.
